Publication PMC12010006, “Subnanomolar MAS-related G protein-coupled receptor-X2/B2 antagonists with efficacy in human mast cells and disease models” (Signal Transduction and Targeted Therapy, 2025)

Assays:
[1] = tested on: IgE-mediated degranulation; test: IgE-mediated degranulation (DNP-BSA) of RBL-MRGPRX2 cells sensitized with DNP-specific IgE; assay type: cell-based, rat; details: 0.1 and 0.3 µM; DNP-BSA 10 and 30 ng/mL
Experimental: Having a competitive MRGPRX2 antagonist with subnanomolar potency in hand, we next studied its effects on MCs. Activation of MRGPRX2, which is highly expressed in skin MCs, results in degranulation and histamine release.[19] We therefore investigated whether PSB-172656 inhibits MRGPRX2-mediated MC activation utilizing the rat MC line RBL-2H3 recombinantly expressing the human MRGPRX2 (designated RBL-MRGPRX2). These cells were treated with two different concentrations of PSB-172656 (100 nM and 300 nM), and then exposed to different MRGPRX2 agonists, namely C48/80 (0.3 µg/mL), SP (0.3 µM), and PAMP-12 (0.1 µM), respectively. Degranulation of the cells was assayed by β-hexosaminidase release measurements.
Fig. 5 PSB-172656 blocks MRGPRX2-induced mast cell degranulation without affecting IgE-mediated responses. a RBL-MRGPRX2 cells were incubated with control (vehicle) or preincubated with PSB-172656 (100 or 300 nM), followed by stimulation with C48/80 (0.3 µg/mL), substance P (SP; 0.3 µM), or PAMP-12 (0.1 µM), and β-hexosaminidase release was measured. RBL-MRGPRX2 cells were sensitized with monoclonal anti-dinitrophenyl antibody (DNP-specific IgE), and degranulation induced by 2,4-dinitrophenylated bovine serum albumin (DNP-BSA, 10 and 30 ng/mL) was measured without or after preincubation with PSB-172656 (0.1 and 0.3 µM). […] Data are expressed as means ± SEM of 3 biological replicates. […]

[2] = tested on: LAD2 cells; test: MTT assay, LAD2 cells; assay type: cell-based, human; details: 24 h; concentrations up to 6-fold higher than IC50 (3, 10, 30 nM)
Experimental: Fig. 6 PSB-172656 inhibits MRGPRX2-mediated mast cell degranulation. a LAD2 cells were incubated with buffer (control) or various concentrations of MRGPRX2 antagonist PSB-172656, subsequently exposed to substance P (SP, 0.3 µM), and β-hexosaminidase release was measured. […] Data are expressed as means ± SEM of 3 biological replicates. Statistical significance was determined by one-way ANOVA (Tukey’s multiple comparisons), compared to the effect of SP in the absence of PSB-172656 (P-value*** < 0.001). b Potential cytotoxicity of PSB-172656 was determined in 3-[4,5-dimethylthiazol-2-yl]-2,5-diphenyl tetrazolium bromide (MTT) assays performed on LAD2 cells. Cells were treated with different concentrations of PSB-172656 for 24 h at 37 °C, and the optic density value was determined at 570 nm (the viability of untreated cells corresponds to 100% cell viability). […] Mean fluorescence intensity (MFI) levels of e CD107a and f CD63 are depicted. […] Degranulation is characterized by the release of β-hexosaminidase, expressed as a percentage of the total content. h Human skin MCs were incubated with different concentrations of PSB-172656 for 30 min followed by stimulation with CST-14 (1 µM). Statistical significance was calculated by one-way ANOVA (Tukey’s multiple comparisons), compared to agonist without PSB-172656 (P-value* < 0.05, […], and P-value**** < 0.001) […]

SMILES: CCc1c(C(C)C)[nH]c2nc3cc(F)c(F)cc3n2c1=O [Compound 24, 3-ethyl-7,8-difluoro-2-isopropylbenzo[4,5]imidazo [1,2-a] pyrimidin-4(1H)-one]
- effect on IgE-mediated degranulation induced by DNP-BSA [1]: did not inhibit
- toxicity in LAD2 cells (MTT) [2]: did not exhibit toxicity
